We go through 16 compounds from ChEMBL document CHEMBL4052734, “Synthesis of novel 2-pyrazoline analogues with potent anti-inflammatory effect mediated by inhibition of phospholipase A2: Crystallographic, in silico docking and QSAR analysis” (Bioorg Med Chem Lett, 2017).

pIC50: −log10 of the molar value. ≈ marks a conversion by molar mass, not a printed value. Calls of active or inactive are those of the source. No cut-off for these calls is given here.

The test system of one experiment is Bacillus subtilis. The experiment is described as follows: Antibacterial activity against Bacillus subtilis MTCC 441 after 24 hrs by serial dilution method. The conditions noted are these: MTCC 441, 24 h. The class given is functional.
The test system of a further experiment is Escherichia coli. The experiment is described as follows: Antibacterial activity against Escherichia coli MTCC 1687 after 24 hrs by serial dilution method. The experiment is classed as functional. The conditions noted are these: MTCC 1687, 24 h.
A further experiment relates to Candida albicans. The experiment in a line: Antifungal activity against Candida albicans MTCC 227 after 72 hrs by serial dilution method. The class given is functional.
Another experiment concerns Staphylococcus aureus. The experiment is described as follows: Antibacterial activity against Staphylococcus aureus MTCC 737 after 24 hrs by serial dilution method. The class given is functional. The conditions noted are these: MTCC 737, 24 h.
Experiment [1] addresses T1, Basic phospholipase A2 VRV-PL-VIIIa (Daboia russelii, UniProt P59071).
T1 sequence (P59071 whole entry): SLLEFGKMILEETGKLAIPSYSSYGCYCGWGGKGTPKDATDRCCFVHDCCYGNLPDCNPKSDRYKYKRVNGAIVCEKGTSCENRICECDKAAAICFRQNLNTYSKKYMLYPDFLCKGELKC
The experiment is described as follows: (§1) Inhibition of Vipera russelii venom sPLA2 using DMPC as substrate preincubated for 2 mins followed by substrate addition measured after 30 mins.

The target of experiment [2] is T2, Basic phospholipase A2 VRV-PL-VIIIa (Daboia russelii) (UniProt P59071).
T2 sequence (whole entry): T1 sequence (P59071 whole entry)
Described as §1.

The test system of another experiment is Aspergillus niger. The experiment is described as follows: Antifungal activity against Aspergillus niger after 72 hrs by serial dilution method. The class given is functional.
A further experiment has as its system Aspergillus flavus. The experiment in a line: Antifungal activity against Aspergillus flavus after 72 hrs by serial dilution method. The experiment is classed as functional.
In experiment [3] the target is T2, Basic phospholipase A2 VRV-PL-VIIIa (Daboia russelii). The experiment is described as follows: Inhibition of Vipera russelii venom sPLA2 using DMPC as substrate at 10.214 uM preincubated for 2 mins followed by substrate addition measured after 30 mins in presence of 1 to 12 mM CaCl2.
For experiment [4] the target is unchanged. The experiment is described as follows: Inhibition of Vipera russelii venom sPLA2 using DMPC as substrate at 11.930 uM preincubated for 2 mins followed by substrate addition measured after 30 mins in presence of 1 to 12 mM CaCl2.
The target is the same in experiment [5]. The experiment is described as follows: Inhibition of Vipera russelii venom sPLA2 using DMPC as substrate at 11.102 uM preincubated for 2 mins followed by substrate addition measured after 30 mins in presence of 1 to 12 mM CaCl2.

As for `Clc1ccc(C2=NN(c3cccc(Cl)c3)C(c3cccc(Cl)c3Cl)C2)cc1` (stereo unspecified), the MIC90 against Bacillus subtilis is 100 mg/L (≈ 229 µM); against Escherichia coli it was 15 mg/L (≈ 34.4 µM); in the experiment with Candida albicans (MTCC 227, 72 h) it was 15 mg/L (≈ 34.4 µM); against Staphylococcus aureus it was 10 mg/L (≈ 22.9 µM); against Aspergillus niger, 15 mg/L (≈ 34.4 µM); against Aspergillus flavus, 110 mg/L (≈ 252 µM). In experiment [1], this compound gave a pIC50 of 4.84. In addition, the inhibition result in [2] was “Dose-dependent effect”.
Turning to `Clc1cccc(C2CC(c3ccccc3)=NN2c2ccccc2)c1Cl` (stereo unspecified), the MIC90 against Bacillus subtilis was found to be 125 mg/L (≈ 340 µM); in the experiment with Escherichia coli, 75 mg/L (≈ 204 µM); in the experiment with Candida albicans (MTCC 227, 72 h), 25 mg/L (≈ 68.1 µM); against Staphylococcus aureus it was 50 mg/L (≈ 136 µM); against Aspergillus niger, 30 mg/L (≈ 81.7 µM); in the experiment with Aspergillus flavus, 110 mg/L (≈ 299 µM). Further, the pIC50 in [1] is 4.92. Besides, in [2], the inhibition result was “Dose-dependent effect”.
For `O=C(O)c1cn(C2CC2)c2cc(N3CCNCC3)c(F)cc2c1=O` [CIPROFLOXACIN], the values for the MIC90 against Bacillus subtilis, in the experiment with Escherichia coli and against Staphylococcus aureus were 40 mg/L (≈ 121 µM), 20 mg/L (≈ 60.4 µM) and 20 mg/L (≈ 60.4 µM), respectively.
As for `Clc1ccc(C2=NN(c3ccccc3)C(c3cccc(Cl)c3Cl)C2)cc1` (stereo unspecified), the MIC90 with Bacillus subtilis amounted to 125 mg/L (≈ 311 µM); against Escherichia coli it was 20 mg/L (≈ 49.8 µM); with Candida albicans (MTCC 227, 72 h) it was 15 mg/L (≈ 37.3 µM); in the experiment with Staphylococcus aureus, 15 mg/L (≈ 37.3 µM); against Aspergillus niger it was 25 mg/L (≈ 62.2 µM); against Aspergillus flavus it was 120 mg/L (≈ 299 µM). The compound also had a pIC50 in experiment [1] of 4.99. Moreover, the inhibition result in [2] is “Dose-dependent effect”. The inhibition result in [3] was “Active”.
Regarding `Clc1cccc(N2N=C(c3ccc4c(c3)OCO4)CC2c2cccc(Cl)c2Cl)c1` (stereo unspecified), the MIC90 against Bacillus subtilis stood at 140 mg/L (≈ 314 µM); against Escherichia coli, 130 mg/L (≈ 292 µM); against Candida albicans (MTCC 227, 72 h), 130 mg/L (≈ 292 µM); in the experiment with Staphylococcus aureus it was 120 mg/L (≈ 269 µM); against Aspergillus niger, 120 mg/L (≈ 269 µM); in the experiment with Aspergillus flavus it was 120 mg/L (≈ 269 µM). In experiment [1], the pIC50 is 4.30. Moreover, the inhibition entry in experiment [2] was “Dose-dependent effect”.
Turning to `COc1cccc(C2=NN(c3ccccc3)C(c3cccc(Cl)c3Cl)C2)c1` (stereo unspecified), the MIC90 turned out to be 130 mg/L (≈ 327 µM) with Bacillus subtilis; 50 mg/L (≈ 126 µM) with Escherichia coli; 40 mg/L (≈ 101 µM) in the experiment with Candida albicans (MTCC 227, 72 h); 50 mg/L (≈ 126 µM) with Staphylococcus aureus; 40 mg/L (≈ 101 µM) with Aspergillus niger; 120 mg/L (≈ 302 µM) in the experiment on Aspergillus flavus. Moreover, in experiment [1], the pIC50 was 4.53. In addition, the inhibition result in experiment [2] was “Dose-dependent effect”.
Consider `COc1ccccc1C1=NN(c2ccccc2)C(c2cccc(Cl)c2Cl)C1` (stereo unspecified), for which the MIC90 was 125 mg/L (≈ 315 µM) with Bacillus subtilis; 50 mg/L (≈ 126 µM) with Escherichia coli; 30 mg/L (≈ 75.5 µM) with Candida albicans (MTCC 227, 72 h); 40 mg/L (≈ 101 µM) in the experiment with Staphylococcus aureus; 40 mg/L (≈ 101 µM) against Aspergillus niger; 125 mg/L (≈ 315 µM) against Aspergillus flavus. The same compound gave a negative-log IC50 (pIC50) in experiment [1] of 4.52. Moreover, the inhibition entry in experiment [2] is “Dose-dependent effect”.
With `COc1cccc(C2=NN(c3cccc(Cl)c3)C(c3cccc(Cl)c3Cl)C2)c1` (stereo unspecified), the MIC90 in the experiment with Bacillus subtilis was 125 mg/L (≈ 290 µM); in the experiment on Escherichia coli, 30 mg/L (≈ 69.5 µM); against Candida albicans (MTCC 227, 72 h) it was 50 mg/L (≈ 116 µM); against Staphylococcus aureus, 50 mg/L (≈ 116 µM); in the experiment with Aspergillus niger, 60 mg/L (≈ 139 µM); in the experiment on Aspergillus flavus, 130 mg/L (≈ 301 µM). The pIC50 in experiment [1] was 4.52. The inhibition entry in [2] is “Dose-dependent effect”.
As to `Clc1cccc(N2N=C(c3ccccc3)CC2c2cccc(Cl)c2Cl)c1` (stereo unspecified), the MIC90 against Bacillus subtilis worked out at 120 mg/L (≈ 299 µM); in the experiment on Escherichia coli it was 20 mg/L (≈ 49.8 µM); in the experiment on Candida albicans (MTCC 227, 72 h), 15 mg/L (≈ 37.3 µM); against Staphylococcus aureus it was 20 mg/L (≈ 49.8 µM); in the experiment on Aspergillus niger it was 20 mg/L (≈ 49.8 µM); in the experiment on Aspergillus flavus, 125 mg/L (≈ 311 µM). In experiment [1], this compound gave a pIC50 of 4.71. Also, the inhibition result in experiment [2] is “Dose-dependent effect”.
Turning to `Fc1ccc(C2=NN(c3cccc(Cl)c3)C(c3cccc(Cl)c3Cl)C2)cc1` (stereo unspecified), the MIC90 with Bacillus subtilis was 120 mg/L (≈ 286 µM); in the experiment with Escherichia coli, 25 mg/L (≈ 59.6 µM); against Candida albicans (MTCC 227, 72 h) it was 50 mg/L (≈ 119 µM); in the experiment on Staphylococcus aureus, 40 mg/L (≈ 95.3 µM); in the experiment on Aspergillus niger it was 30 mg/L (≈ 71.5 µM); with Aspergillus flavus it was 130 mg/L (≈ 310 µM). Also, the pIC50 in [1] was 4.72. Moreover, the inhibition entry in experiment [2] was “Dose-dependent effect”.
For `COc1ccc(C2=NN(c3ccccc3)C(c3cccc(Cl)c3Cl)C2)cc1` (stereo unspecified), the MIC90 is 140 mg/L (≈ 352 µM) against Bacillus subtilis; 40 mg/L (≈ 101 µM) with Escherichia coli; 30 mg/L (≈ 75.5 µM) against Candida albicans (MTCC 227, 72 h); 40 mg/L (≈ 101 µM) against Staphylococcus aureus; 50 mg/L (≈ 126 µM) against Aspergillus niger; 125 mg/L (≈ 315 µM) in the experiment on Aspergillus flavus. This compound also gave a pIC50 in experiment [1] of 4.92. In addition, the inhibition result in experiment [2] was “Dose-dependent effect”. Also, in [4], the inhibition result was “Active”.
In the case of `Clc1cccc(C2CC(c3ccc4c(c3)OCO4)=NN2c2ccccc2)c1Cl` (stereo unspecified), the MIC90 against Bacillus subtilis came out at 140 mg/L (≈ 340 µM); in the experiment with Escherichia coli it was 140 mg/L (≈ 340 µM); in the experiment with Candida albicans (MTCC 227, 72 h), 120 mg/L (≈ 292 µM); in the experiment on Staphylococcus aureus it was 130 mg/L (≈ 316 µM); in the experiment with Aspergillus niger, 130 mg/L (≈ 316 µM); with Aspergillus flavus it was 130 mg/L (≈ 316 µM). The same compound gave a negative logarithm of the IC50 (pIC50) in [1] of 4.32. The inhibition result in experiment [2] was “Dose-dependent effect”.
For the compound `COc1ccccc1C1=NN(c2cccc(Cl)c2)C(c2cccc(Cl)c2Cl)C1` (stereo unspecified), the MIC90 with Bacillus subtilis was 140 mg/L (≈ 324 µM); in the experiment on Escherichia coli it was 40 mg/L (≈ 92.6 µM); against Candida albicans (MTCC 227, 72 h), 40 mg/L (≈ 92.6 µM); against Staphylococcus aureus, 40 mg/L (≈ 92.6 µM); in the experiment with Aspergillus niger, 50 mg/L (≈ 116 µM); with Aspergillus flavus it was 130 mg/L (≈ 301 µM). This compound also had a pIC50 in experiment [1] of 4.45. Also, the inhibition entry in experiment [2] is “Dose-dependent effect”.
As to `Cc1ccc(C2=NN(c3ccccc3)C(c3cccc(Cl)c3Cl)C2)cc1` (stereo unspecified), the MIC90 in the experiment with Bacillus subtilis stood at 120 mg/L (≈ 315 µM); in the experiment with Escherichia coli it was 60 mg/L (≈ 157 µM); with Candida albicans (MTCC 227, 72 h), 60 mg/L (≈ 157 µM); in the experiment on Staphylococcus aureus it was 60 mg/L (≈ 157 µM); with Aspergillus niger, 75 mg/L (≈ 197 µM); against Aspergillus flavus, 120 mg/L (≈ 315 µM). This compound had a pIC50 in [1] of 4.66. Also, in [2], the inhibition result was “Dose-dependent effect”.
NYSTATIN: the MIC90 was 20 mg/L in the experiment with Candida albicans, 25 mg/L against Aspergillus niger and 25 mg/L in the experiment on Aspergillus flavus.
As to `Fc1ccc(C2=NN(c3ccccc3)C(c3cccc(Cl)c3Cl)C2)cc1` (stereo unspecified), the MIC90 in the experiment with Bacillus subtilis is 125 mg/L (≈ 324 µM); in the experiment with Escherichia coli it was 25 mg/L (≈ 64.9 µM); against Candida albicans (MTCC 227, 72 h), 50 mg/L (≈ 130 µM); with Staphylococcus aureus, 40 mg/L (≈ 104 µM); in the experiment with Aspergillus niger it was 30 mg/L (≈ 77.9 µM); in the experiment on Aspergillus flavus, 120 mg/L (≈ 311 µM). Also, in experiment [1], the pIC50 is 4.95. For the same compound, the inhibition entry in experiment [2] is “Dose-dependent effect”. In [5], the inhibition entry is “Active”.
